Results published in patent US20240288449A1, “METHODS FOR DIAGNOSING A CANCER- OR ANTIBIOTICS-INDUCED DYSBIOSIS AND THEIR USE FOR IMPROVING CANCER TREATMENT BY IMMUNOTHERAPY” (INSTITUT GUSTAVE ROUSSY, priority 2021, published 2024).

Tests used:
[1] = test system: metastatic clear cell renal cell carcinoma (RCC); experiment: NIVOREN trial, second line anti-PD1 in renal cell carcinoma patients; assay type: in vivo, human
[2] = test system: MAdCAM-1 (Madcam1 gene expression); experiment: Madcam1 gene and protein expression in gut tissues of mice (RT-PCR, IHC, flow cytometry, ELISA); assay type: in vivo, C57BL/6J mice; details: for Madcam1 gene expression in mesenteric lymph nodes (mLN) / Madcam1 gene expression in ileal LP: single antibiotic regimen, 7 days conditioning
Description: (§1) Antibiotic treatments. If not indicated otherwise, mice were treated with a broad spectrum antibiotic solution (ATB) containing ampicillin (1 mg/ml), streptomycin (5 mg/ml), and colistin (1 mg/ml) (Sigma-Aldrich) added to the sterile drinking water of mice. In experiments where single antibiotics were used the concentrations were ampicillin (1 mg/ml), streptomycin (5 mg/ml), colistin (1 mg/ml), erythromycin (1 mg/ml) or ciprofloxacin (0.1 mg/ml) respectively. Solutions and bottles were changed 2 times weekly. Antibiotic activity, in the experiments where the antibiotic mix was used, was confirmed by cultivating fecal pellets resuspended in BHI+15% glycerol at 0.1 g/ml on COS (Columbia Agar with 5% Sheep Blood) plates for 48 h at 37° C. in aerobic and anaerobic conditions weekly. Duration of ATB treatment was slightly different (7-14 days before aPD-1 treatment) based on the experimental settings and is indicated in results for each experiment. In brief, to compromise the efficacy of anti-PD-1 mAb, mice were treated with ATB for one to two weeks before tumor implantation and ATB was continued throughout the experiment or discontinued on the day of anti PD-1 treatment initiation as indicated in the individual experiment. In the context of fecal microbial transplantation experiments, mice received 3 days of ATB before undergoing fecal microbial transplantation the next day by oral gavage using animal feeding needles. In the TC-1 model, ATB treatment was started 3 days before tumor injection and discontinued one day before the first bacterial gavage.
Oral bacterial gavage with commensal species. Akkermansia muciniphila CSUR P2261, and A. indistinctus CSUR P723 were provided by the Institut hospitalo-universitaire Méditerranée Infection, Marseille, France. Enterococcus hirae 13144 isolates were originally isolated from spleens or mesenteric lymph nodes of SPF mice treated with CTX at Gustave Roussy Cancer Campus. A. muciniphila was grown on COS plates in an anaerobic atmosphere created using 3 anaerobic generators (Biomerieux) at 37° C. for at least 72 h. E. hirae 13144 were grown on 5% sheep blood enriched Columbia agar for 24 h at 37° C. in aerobic conditions. Colonization of ATB pre-treated or GF C57BL/6 mice was performed by oral gavage with 100 μl of suspension containing 1×10^8 bacteria. For bacterial gavage: suspensions of […] were obtained using a fluorescence spectrophotometer (Eppendorf) at an optical density of 600 nm in PBS. Five bacterial gavages were performed for each mouse, the first 24 h before the first injection of antiPD-1 mAb and subsequently four times on the same day as anti-PD-1 mAb injection. The efficacy of colonization with E. hirae 13144 was confirmed by culturing the feces 48 h post gavage. Fecal pellets were harvested and resuspended in BHI+15% glycerol at 0.1 g/ml. Serial dilutions of feces were plated onto 5% sheep blood enriched Columbia agar and incubated for 48 h at 37° C. in aerobic and anaerobic conditions. After 48 h, single colonies were isolated and Gram staining was performed. The identification of specific bacteria was accomplished using a Matrix-Assisted Laser Desorption/Ionisation Time of Flight (MALDI-TOF) mass spectrometer (Andromas, Beckman Coulter, France).
RNA extraction and rtPCR. Lysis and extraction protocols were identical for human and mouse samples. Tumor or intestinal samples were snap frozen in liquid nitrogen in RLT Plus buffer containing 0.1% beta mercaptoethanol. On the day of extraction samples were thawed at 4° C. and homogenized on a microtube homogenizer (Benchmark Scientific) in RNA free glass bead tubes (Dutscher). Total RNA extraction and genomic DNA removal were performed with the RNeasy Mini kit (Qiagen), following the manufacturer's recommendations. […]

[3] = test system: RORγt+ Treg (Tr17) in MCA205 and 4T1 tumors; experiment: Flow cytometry of tumor infiltrating lymphocytes and mLN (Tr17 subsets); assay type: in vivo, mice; details: oral gavage after ATB stop, s.c. MCA205, αPD-1-based therapy
Description: as §1, with “In the context of fecal microbial transplantation experiments, mice received 3 days of ATB before undergoing fecal microbial transplantation the next day by oral gavage using animal feeding needles. In the TC-1 model, ATB treatment was started 3 days before tumor injection and discontinued one day before the first bacterial gavage.” left out
Subcutaneous model of MCA-205 sarcoma, MC38 and RET melanoma. […] Tumor length and width was routinely monitored every 3 times per week by means of a caliper. […]

[4] = test system: metastatic bladder cancer; experiment: STRONG study, Durvalumab in pre-treated metastatic bladder cancer patients; assay type: in vivo, human; details: 79 patients, 1500 mg iv /4 weeks
Description: Finally, we sought to triplicate the predictive value of sMAdCAM-1 in a subcohort of a Phase 3a trial enrolling pre-treated metastatic bladder cancer patients to receive a fixed dose of 1500 mg of Durvalumab iv (anti-PD-L1 Abs)/4 weeks. In this STRONG study, 79 patients only were analyzed, with an overall median OS of 5.79 months, and a median PFS of 2.79 months. We selected the extreme of the STRONG cohort, 30 Elite patients (OS>6 months, PFS>5 months, PR+CR only) and rapid progressors (n=49, with OS<6 months and PFS<5 months and PD at the first CT scan). In this cohort, the MAdCAM-1 median (min,max) was 158.8 ng/ml (53.41, 244.36).

[5] = NIVOREN trial, N=729 RCC patients

Nivolumab: anti-PD1 mAb
complete responses [1, 5]: 1.2% | objective response rate [1, 5]: 20.8% | partial responses [1, 5]: 19.6% | progressive diseases (PD) [1, 5]: 79.2% | Best response: Partial response ([1]; Overall (n = 212) RCC patients): (7.1) % | Best response: Progressive disease ([1]; Overall (n = 212) RCC patients): (49.7) %

CC1(C)S[C@@H]2[C@H](NC(=O)[C@H](N)c3ccccc3)C(=O)N2[C@H]1C(=O)O [ampicilline, ampicillin]
Madcam1 gene expression in mesenteric lymph nodes (mLN) ([2]; RT-PCR): downregulate

[H]/N=C(/N)N[C@H]1[C@H](O)[C@@H](O)[C@H](O[C@@H]2O[C@@H](C)[C@](O)(C=O)[C@H]2O[C@@H]2O[C@@H](CO)[C@H](O)[C@@H](O)[C@@H]2NC)[C@@H](N/C(N)=N\[H])[C@@H]1O [streptomycin]
Madcam1 gene expression in Peyers' patches (PP) ([2]; RT-PCR): downregulated | Madcam1 gene expression in ileal LP ([2]; RT-PCR): downregulated | Madcam1 gene expression in mesenteric lymph nodes (mLN) ([2]; RT-PCR): downregulated

Lactobacillus reuteri
Madcam1 ileal gene expression ([2]; oral supplementation of FMT recipients): could further influence | Tr17 recruitment promoted by PD1 inhibition [3]: failed to do so

CC[C@H]1OC(=O)[C@H](C)[C@@H](O[C@H]2C[C@@](C)(OC)[C@@H](O)[C@H](C)O2)[C@H](C)[C@@H](O[C@@H]2O[C@H](C)C[C@H](N(C)C)[C@H]2O)[C@](C)(O)C[C@@H](C)C(=O)[C@H](C)[C@@H](O)[C@]1(C)O [erythromycin]
Madcam1 gene expression in mesenteric lymph nodes (mLN) ([2]; RT-PCR): downregulate

Durvalumab: anti-PD-L1 Abs
median PFS [4]: 2.79 months | overall median OS [4]: 5.79 months

CN[C@H](CC(C)C)C(=O)N[C@H]1C(=O)N[C@@H](CC(N)=O)C(=O)N[C@H]2C(=O)N[C@H]3C(=O)N[C@H](C(=O)N[C@H](C(=O)O)c4cc(O)cc(O)c4-c4cc3ccc4O)[C@H](O)c3ccc(c(Cl)c3)Oc3cc2cc(c3O[C@@H]2O[C@H](CO)[C@@H](O)[C@H](O)[C@H]2O[C@H]2C[C@](C)(N)[C@H](O)[C@H](C)O2)Oc2ccc(cc2Cl)[C@H]1O [vancomycin]
Madcam1 gene expression in ileal LP ([2]; RT-PCR): upregulated | Madcam1 gene expression in mesenteric lymph nodes (mLN) ([2]; RT-PCR): failed to downregulate
